Data: PubChem BioAssay (NCI)
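How tested: cells in 96-well plates exposed to compound for 48 hours at five concentrations. TGI is the concentration that stops growth completely.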

Tests used:
Assay in all cases: NCI anticancer screen, dose series, 48 h
786-0 renal = system: 786-0 renal
A498 renal = system: A498 renal
A549 NSCLC = system: A549 NSCLC
ACHN renal = system: ACHN renal
BT-549 breast = system: BT-549 breast
CAKI-1 renal = system: CAKI-1 renal
CCRF-CEM leukemia = system: CCRF-CEM leukemia
COLO 205 colon = system: COLO 205 colon
DU-145 prostate = system: DU-145 prostate
EKVX NSCLC = system: EKVX NSCLC
HCC-2998 colon = system: HCC-2998 colon
HCT-116 colon = system: HCT-116 colon
HCT-15 colon = system: HCT-15 colon
HL-60(TB) leukemia = system: HL-60(TB) leukemia
HOP-62 NSCLC = system: HOP-62 NSCLC
HOP-92 NSCLC = system: HOP-92 NSCLC
HS 578T breast = system: HS 578T breast
HT29 colon = system: HT29 colon
IGROV1 ovarian = system: IGROV1 ovarian
K-562 leukemia = system: K-562 leukemia
KM12 colon = system: KM12 colon
LOX IMVI melanoma = system: LOX IMVI melanoma
M14 melanoma = system: M14 melanoma
MALME-3M melanoma = system: MALME-3M melanoma
MCF7 breast = system: MCF7 breast
MDA-MB-231 breast = system: MDA-MB-231 breast
MDA-MB-435 = system: MDA-MB-435
MOLT-4 leukemia = system: MOLT-4 leukemia
NCI-H226 lung = system: NCI-H226 lung
NCI-H23 lung = system: NCI-H23 lung
NCI-H460 lung = system: NCI-H460 lung
NCI-H522 lung = system: NCI-H522 lung
NCI/ADR-RES ovarian = system: NCI/ADR-RES ovarian
OVCAR-3 ovarian = system: OVCAR-3 ovarian
OVCAR-4 ovarian = system: OVCAR-4 ovarian
OVCAR-5 ovarian = system: OVCAR-5 ovarian
OVCAR-8 ovarian = system: OVCAR-8 ovarian
PC-3 prostate = system: PC-3 prostate
RPMI-8226 leukemia = system: RPMI-8226 leukemia
RXF 393 renal = system: RXF 393 renal
SF-268 CNS = system: SF-268 CNS
SF-295 CNS = system: SF-295 CNS
SF-539 CNS = system: SF-539 CNS
SK-MEL-2 melanoma = system: SK-MEL-2 melanoma
SK-MEL-28 melanoma = system: SK-MEL-28 melanoma
SK-MEL-5 melanoma = system: SK-MEL-5 melanoma
SK-OV-3 ovarian = system: SK-OV-3 ovarian
SN12C renal = system: SN12C renal
SNB-19 CNS = system: SNB-19 CNS
SNB-75 CNS = system: SNB-75 CNS
SR leukemia = system: SR leukemia
SW-620 colon = system: SW-620 colon
T-47D breast = system: T-47D breast
TK-10 renal = system: TK-10 renal
U251 CNS = system: U251 CNS
UACC-257 melanoma = system: UACC-257 melanoma
UACC-62 melanoma = system: UACC-62 melanoma
UO-31 renal = system: UO-31 renal

Measured: TGI

COCn1cnc2c(=O)n(-c3ccc(C)cc3)c(=S)n(-c3ccc(C)cc3)c21
> 100 µM: all assays above
